Test results as given in PubChem BioAssay AID2060900 (Molecular Pharmacology Branch, DTP, NCI, 2025).

Test system: 521955-158-R2-J5-PDC complex spheroids, viability
Assay: Anticancer human tumor 521955-158-R2-J5-PDC patient-derived pancreatic carcinoma cell line growth inhibition [RAS]
Details: for viability, T/C: stronger effect = lower value
From the text: RAS pathway inhibitors in Combinations in Complex Spheroids
A high-throughput screen of multi-cell type tumor spheroids was designed to identify active combinations of RAS pathway inhibitors and targeted small molecules. Complex spheroids include a stromal component modeled by human endothelial cells (HUVEC) and fibroblasts modeled by human mesenchymal stem cells (MSCs). The concentration ranges selected for each drug and investigational agent were based upon clinically achievable concentrations if the clinical Cmax of the agent was known.
Compounds. The drugs and investigational agents: abemaciclib (NSC768073), cobimetinib (NSC768068), divarasib (GDC6063, NSC841802), docetaxel (NSC628503), GDC-1971 (RLY-1971, NSC841576), gemcitabine (NSC613327), inavolisib (NSC800729), ipatasertib (NSC767898), KB-0742 (NSC834161), MRTX-1133 (NSC836407), osimertinib (NSC779217), RMC-4630 (NSC839698), RMC-6236 (NSC851965), RMC-6291 (NSC852671), Ro-3306 (NSC812927), sapanisertib (NSC764658), SN-38 (NSC673596), staurosporine (NSC755774), SY5609 (NSC837396), and tovorafenib (DAY101, NSC766906), were obtained from the National Cancer Institute (NCI) Developmental Therapeutics Program Chemical Repository. The FDA-approved anticancer drug set is available from the NCI Developmental Therapeutics Program. […] The stock solutions were prepared in dimethyl sulfoxide (DMSO, Sigma-Aldrich, St. Louis, MO, cat. D2650) at 800-fold the tested concentration and stored at -70 degrees C prior to their use. All drugs and investigational agents were tested over a range starting from a high concentration at or near the clinical Cmax and decreasing in half-log increments. If the clinical Cmax for an agent had not been determined, the highest concentration tested was 10 microM.
Cell Culture. All cells were maintained in an incubator at 37 degrees C and 5% CO2 with 95% humidity. The PDC lines were cultured according to standard operating procedures established by the NCI PDMR. All PDCs were thawed and cultured in Matrigel-coated flasks prepared with a working solution of 1X Ham's F-12 nutrient mix, without supplementation (Invitrogen, Waltham, MA, cat. 11765054), 100 U/mL penicillin-streptomycin (Invitrogen, cat. 15140122), and 2.5% Matrigel (Corning Inc., Corning, NY, cat. 354248) for the first three passages. The 362531-283-R-J2-PDC and 782815-120-R-J1-PDC lines were cultured in 6C/Colon 1B media, which includes advanced DMEM/F-12 (Thermo Fisher Scientific, cat. 12634028), 10 mM HEPES (Thermo Fisher Scientific, cat. 15630080), 1X GlutaMAX supplement (Thermo Fisher Scientific, cat. 35050061), 0.1 mg/mL primocin (InvivoGen, San Diego, CA, cat. ant-pm-2), 10% defined fetal bovine serum, heat inactivated (HyClone Laboratories Inc., Logan, UT, cat. SH30070.03HI), 50% L-WRN conditioned media (ATCC, cat. CRL-3276), 1.25 mM N-Acetyl-L-cysteine (Sigma-Aldrich, cat. A9165), 10 mM nicotinamide (Sigma-Aldrich, cat. N0636), 1X B-27 supplement (Thermo Fisher Scientific, cat. 17504044), 1X N-2 supplement (Thermo Fisher Scientific, cat. 17502048), 50 ng/mL human EGF (Thermo Fisher Scientific, cat. PHG0311), and 10 microM Y-27632 dihydrochloride (Tocris Bioscience, cat. 1254). The K12877-001-R-J1-PDC line was cultured in 6I media, which includes all 6C/Colon 1B media plus 10 ng/mL human FGF-10 (PeproTech, cat. 100-26), 1 ng/mL human FGF-2 (PeproTech, cat. 100-18B), 1 µM prostaglandin E2 (Tocris Bioscience, cat. 2296), […] hydrocortisone (Sigma-Aldrich, cat. H4001), and […] bovine insulin (Sigma-Aldrich, cat. I6634). The K86415-001-R-J1-PDC line was cultured in 6D media, which includes all 6C/Colon 1B media components minus the L-WRN conditioned media. The 485176-168-R4-J1-PDC was cultured in PANC media, which includes all 6C/Colon 1B media plus 100 ng/mL human FGF-10 (PeproTech, cat. 100-26), 500 nM SB-431542 (Selleckchem, cat. S1067), and 10 nM gastrin (Tocris Bioscience, cat. 3006). […]
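Note: compound exposure lasted seven days before the viability read.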
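Throughout, for viability, T/C: spheroids also contain HUVEC endothelial cells and mesenchymal stem cells as stroma.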

Compound: NC1c2ccccc2OC12CCN(c1cnc3c(N4CCCc5ncccc54)n[nH]c3n1)CC2 (centres undefined) + C#Cc1c(F)ccc2cc(O)cc(-c3ncc4c(N5CC6CCC(C5)N6)nc(OCC56CCCN5CC(F)C6)nc4c3F)c12
- IC50 (curve of first compound, second compound 0.0316 µM): < 31.6 nM
- IC50 (curve of first compound, second compound 0.1 µM): 35.2 nM
- IC50 (curve of first compound, second compound 0.316 µM): < 31.6 nM
- IC50 (curve of first compound, second compound 1 µM): < 31.6 nM
- IC50 (curve of first compound, second compound 3.16 µM): < 31.6 nM
- IC50 (curve of first compound, second compound 10 µM): < 31.6 nM
- viability, T/C (second compound 0.0316 µM, first compound 0.0316 µM): 49.8%
- viability, T/C (second compound 0.0316 µM, first compound 0.1 µM): 38.6%
- viability, T/C (second compound 0.0316 µM, first compound 0.316 µM): 32.1%
- viability, T/C (second compound 0.0316 µM, first compound 1 µM): 19.2%
- viability, T/C (second compound 0.0316 µM, first compound 3.16 µM): 16.3%
- viability, T/C (second compound 0.0316 µM, first compound 10 µM): 9.96%
- viability, T/C (second compound 0.1 µM, first compound 0.0316 µM): 50.6%
- viability, T/C (second compound 0.1 µM, first compound 0.1 µM): 42.4%
- viability, T/C (second compound 0.1 µM, first compound 0.316 µM): 26.2%
- viability, T/C (second compound 0.1 µM, first compound 1 µM): 16.9%
- viability, T/C (second compound 0.1 µM, first compound 3.16 µM): 14.2%
- viability, T/C (second compound 0.1 µM, first compound 10 µM): 10.4%
- viability, T/C (second compound 0.316 µM, first compound 0.0316 µM): 44%
- viability, T/C (second compound 0.316 µM, first compound 0.1 µM): 35.5%
- viability, T/C (second compound 0.316 µM, first compound 0.316 µM): 21.9%
- viability, T/C (second compound 0.316 µM, first compound 1 µM): 12.9%
- viability, T/C (second compound 0.316 µM, first compound 3.16 µM): 12.2%
- viability, T/C (second compound 0.316 µM, first compound 10 µM): 7.43%
- viability, T/C (second compound 1 µM, first compound 0.0316 µM): 35%
- viability, T/C (second compound 1 µM, first compound 0.1 µM): 31.7%
- viability, T/C (second compound 1 µM, first compound 0.316 µM): 23.9%
- viability, T/C (second compound 1 µM, first compound 1 µM): 13.1%
- viability, T/C (second compound 1 µM, first compound 3.16 µM): 12.5%
- viability, T/C (second compound 1 µM, first compound 10 µM): 8.41%
- viability, T/C (second compound 3.16 µM, first compound 0.0316 µM): 32.1%
- viability, T/C (second compound 3.16 µM, first compound 0.1 µM): 25.3%
- viability, T/C (second compound 3.16 µM, first compound 0.316 µM): 17.8%
- viability, T/C (second compound 3.16 µM, first compound 1 µM): 11.1%
- viability, T/C (second compound 3.16 µM, first compound 3.16 µM): 5.56%
- viability, T/C (second compound 3.16 µM, first compound 10 µM): 3.9%
- viability, T/C (second compound 10 µM, first compound 0.0316 µM): 21.3%
- viability, T/C (second compound 10 µM, first compound 0.1 µM): 16%
- viability, T/C (second compound 10 µM, first compound 0.316 µM): 5.5%
- viability, T/C (second compound 10 µM, first compound 1 µM): 4.22%
- viability, T/C (second compound 10 µM, first compound 3.16 µM): 3.21%
- viability, T/C (second compound 10 µM, first compound 10 µM): 1.47%

Compound: CCc1c2c(nc3ccc(O)cc13)-c1cc3c(c(=O)n1C2)COC(=O)[C@]3(O)CC
- viability, T/C (compound 0.000949 µM): 82.5% [middle of 4 runs]
- viability, T/C (compound 0.003 µM): 44.6% [middle of 4 runs]
- viability, T/C (compound 0.00949 µM): 19.9% [middle of 4 runs]
- viability, T/C (compound 0.03 µM): 10.1% [middle of 4 runs]
- viability, T/C (compound 0.0949 µM): 6.59% [middle of 4 runs]
- viability, T/C (compound 0.3 µM): 6.5% [middle of 4 runs]
- IC50 (curve of compound): 2.64 nM [middle of 4 runs]
